Measurements from ChEMBL document CHEMBL1275271, “QSAR and docking studies of novel antileishmanial diaryl sulfides and sulfonamides” (Eur J Med Chem, 2010).

How the values were obtained:
[1] = tested on: Leishmania donovani; test: Antileishmanial activity against Leishmania donovani; assay type: functional, organism-based
[2] = in vivo; conditions: rat, po
[3] = Octanol-water partition coefficient, log P of the compound
[4] = Toxicity in po dosed mouse; conditions: in vivo

| IC50 [1] | Structure (SMILES) | LD50 [2] | logP [3] | LD50 [4] |
| --- | --- | --- | --- | --- |
| 21 µM | Cc1nc(Sc2nccn2-c2cc(Cl)ccc2Cl)c(C(=O)O)cc1C#N |  |  |  |
| 80 µM | O=[N+]([O-])c1ccc(Oc2c(Cl)cccc2Cl)c([N+](=O)[O-])c1Oc1c(Cl)cccc1Cl |  |  |  |
| 60 µM | O=C1NC(=O)c2cc([N+](=O)[O-])c(Sc3c(Cl)cccc3Cl)cc21 |  |  |  |
|  | O=[N+]([O-])c1cc([N+](=O)[O-])c(S(=O)(=O)Nc2cccc(F)c2)c(C(F)(F)F)c1 | 620 mg/kg | 4.39 | 880 mg/kg |
|  | Cc1cc(NS(=O)(=O)c2c([N+](=O)[O-])cc([N+](=O)[O-])cc2C(F)(F)F)c(Cl)cc1Cl | 350 mg/kg | 6.44 | 650 mg/kg |
|  | CCCN(CCC)c1c([N+](=O)[O-])cc(Sc2cc(C)c(Cl)cc2Cl)cc1[N+](=O)[O-] | 1600 mg/kg | 8.66 | 1800 mg/kg |
|  | N#Cc1cc([N+](=O)[O-])c(S(=O)(=O)Nc2cccc(F)c2)c([N+](=O)[O-])c1 | 1200 mg/kg | 2.51 | 1300 mg/kg |
|  | Cc1cc(S(=O)(=O)c2c([N+](=O)[O-])cc(C#N)cc2[N+](=O)[O-])c(Cl)cc1Cl | 1000 mg/kg | 4.08 | 1100 mg/kg |
|  | CCCN(CCC)c1c([N+](=O)[O-])cc(Sc2ccc(OC)cc2)cc1[N+](=O)[O-] | 1900 mg/kg | 6.53 | 1600 mg/kg |
|  | Cc1cc(S(=O)(=O)c2c([N+](=O)[O-])cc(C(F)(F)F)cc2[N+](=O)[O-])c(Cl)cc1Cl | 1200 mg/kg | 5.72 | 1800 mg/kg |
| 32 µM | CCCN(CCC)c1c([N+](=O)[O-])cc(C(N)=O)cc1[N+](=O)[O-] |  |  |  |
|  | O=[N+]([O-])c1cc(C(F)(F)F)cc([N+](=O)[O-])c1Sc1ccc(Cl)cc1Cl | 600 mg/kg | 6.73 | 780 mg/kg |
| 98.2 µM | Cc1cc(Sc2ncc(C(F)(F)F)cc2[N+](=O)[O-])c(Cl)cc1Cl |  |  |  |
| 59 µM | Cc1cc(Sc2ccc(C(F)(F)F)cc2[N+](=O)[O-])c(Cl)cc1Cl |  |  |  |
| 76 µM | CCCN(CCC)c1c([N+](=O)[O-])cc(S(=O)(=O)Nc2ccc(OC)cc2)cc1[N+](=O)[O-] |  |  |  |
| 12 µM | CCCCCCN(CCCCCC)c1c([N+](=O)[O-])cc(S(N)(=O)=O)cc1[N+](=O)[O-] |  |  |  |
|  | CCCN(CCC)c1c([N+](=O)[O-])cc(S(N)(=O)=O)cc1[N+](=O)[O-] [ORYZALIN] | 1400 mg/kg | 3.38 | 1600 mg/kg |

| Structure (SMILES) | IC50 [1] | LD50 [2] | logP [3] | LD50 [4] |
| --- | --- | --- | --- | --- |
| COc1ccc(Sc2c([N+](=O)[O-])cc(C#N)cc2[N+](=O)[O-])cc1 | 0.67 µM | 1400 mg/kg | 3.56 | 1100 mg/kg |
